Key:
[1] = test system: Human immunodeficiency virus 1; experiment: Antiviral activity toward K103N mutant HIV-1 virus as protein binding adjusted (PB adj).; assay type: functional
[2] = test system: Human immunodeficiency virus 1; experiment: Antiviral activity against HIV-1 K103N mutant virus.; assay type: functional
[3] = test system: Human immunodeficiency virus 1; experiment: Antiviral activity was evaluated for the inhibition of wild-type RF strain of HIV-1 in an in vitro enzyme assay.; assay type: functional
[4] = molecular target: Human immunodeficiency virus type 1 reverse transcriptase (Human immunodeficiency virus 1) (UniProt Q72547); conditions: Plasma
Description: Effect of human plasma protein binding on antiviral efficacy.

[5] = test system: Human immunodeficiency virus 1; experiment: In vitro antiviral activity against HIV-1 (L100I).; assay type: functional
[6] = molecular target: Human immunodeficiency virus type 1 reverse transcriptase (Human immunodeficiency virus 1, UniProt Q72547); experiment: Inhibition of HIV-1 reverse transcriptase.

SMILES: Cc1ccnc2c1NC(=O)c1cccnc1N2C1CC1 [NEVIRAPINE]
- IC90 [1]: 10200 nM
- IC90 ([2]; Human immunodeficiency virus 1): 5100 nM
- IC90 [3]: 50 nM
- IC90 [4]: 100 nM

SMILES: COc1ccc2c(c1)[C@@](C#Cc1ccccn1)(C(F)(F)F)NC(=O)N2
- IC90 [1]: 5880 nM
- IC90 ([2]; Human immunodeficiency virus 1): 338 nM
- IC90 [5]: 98 nM
- IC50 [6]: 237 nM
- IC90 [3]: 8.1 nM
- IC90 [4]: 138 nM

SMILES: COc1ccc2c(c1)[C@@](C#CC1CC1)(C(F)(F)F)NC(=O)N2
- IC90 [1]: 396 nM
- IC90 ([2]; Human immunodeficiency virus 1): 40 nM
- IC90 [5]: 46 nM
- IC50 [6]: 124 nM
- IC90 [3]: 2.9 nM
- IC90 [4]: 29 nM

SMILES: CC(C)C#C[C@]1(C(F)(F)F)NC(=O)Nc2ccc(F)c(Cl)c21
- IC90 [1]: 74 nM
- IC90 ([2]; Human immunodeficiency virus 1): 15 nM
- IC90 [5]: 13 nM
- IC50 [6]: 78 nM
- IC90 [3]: 3 nM
- IC90 [4]: 15 nM

SMILES: O=C1Nc2ccc(F)cc2[C@@](C#Cc2ccccc2)(C(F)(F)F)N1
- IC90 [1]: 3220 nM
- IC90 ([2]; Human immunodeficiency virus 1): 322 nM
- IC90 [5]: 677 nM
- IC50 [6]: 143 nM
- IC90 [3]: 6.6 nM
- IC90 [4]: 66 nM

SMILES: CCC#C[C@]1(C(F)(F)F)NC(=O)Nc2ccc(Cl)cc21
- IC90 [1]: 826 nM
- IC90 ([2]; Human immunodeficiency virus 1): 26 nM
- IC50 [6]: 110 nM
- IC90 [3]: 3.3 nM
- IC90 [4]: 83 nM

SMILES: O=C1Nc2ccc(Cl)cc2[C@@](C#CC2CC2)(C(F)(F)F)N1 (stereo in doubt; 14) [listing 1 of 2 here]
- IC90 [4]: 41 nM

SMILES: O=C1Nc2ccc(F)cc2[C@@](C#CC2CC2)(C(F)(F)F)N1
- IC90 [1]: 566 nM
- IC90 ([2]; Human immunodeficiency virus 1): 48 nM
- IC90 [5]: 29 nM
- IC50 [6]: 50 nM
- IC90 [3]: 2 nM
- IC90 [4]: 24 nM

SMILES: CC(C)C#C[C@]1(C(F)(F)F)NC(=O)Nc2ccc(Cl)cc21
- IC90 [1]: 653 nM
- IC90 ([2]; Human immunodeficiency virus 1): 22 nM
- IC90 [5]: 28 nM
- IC50 [6]: 281 nM
- IC90 [3]: 3 nM
- IC90 [4]: 90 nM

SMILES: CC(C)C#C[C@]1(C(F)(F)F)NC(=O)Nc2ccc(F)c(F)c21 (stereo in doubt; 20) [listing 1 of 2 here]
- IC90 [1]: 139 nM
- IC90 ([2]; Human immunodeficiency virus 1): 14 nM
- IC90 [5]: 10 nM
- IC50 [6]: 91 nM
- IC90 [3]: 2.1 nM

SMILES: CC(C)Nc1cccnc1N1CCN(C(=O)c2cc3cc(NS(C)(=O)=O)ccc3[nH]2)CC1 [DELAVIRDINE]
- IC90 [1]: 38000 nM
- IC90 ([2]; Human immunodeficiency virus 1): 1000 nM
- IC90 [3]: 37 nM

SMILES: O=C1Nc2cccc(F)c2[C@@](C#CC2CC2)(C(F)(F)F)N1
- IC90 [1]: 917 nM
- IC90 ([2]; Human immunodeficiency virus 1): 89 nM
- IC90 [5]: 108 nM
- IC50 [6]: 62 nM
- IC90 [3]: 1.4 nM
- IC90 [4]: 14 nM

SMILES: CC(C)C#C[C@]1(C(F)(F)F)NC(=O)Nc2ccc(F)cc21
- IC90 [1]: 891 nM
- IC90 ([2]; Human immunodeficiency virus 1): 27 nM
- IC90 [5]: 17 nM
- IC50 [6]: 39 nM
- IC90 [3]: 2.6 nM
- IC90 [4]: 86 nM

SMILES: O=C1Nc2ccc(Cl)cc2[C@@](C#Cc2ccccc2)(C(F)(F)F)N1
- IC90 [1]: 3000 nM
- IC90 ([2]; Human immunodeficiency virus 1): 250 nM
- IC90 [5]: 365 nM
- IC50 [6]: 277 nM
- IC90 [3]: 7.1 nM
- IC90 [4]: 86 nM

SMILES: CC(C)C#C[C@]1(C(F)(F)F)NC(=O)Nc2ccc(F)c(F)c21 (stereo in doubt; 20) [listing 2 of 2 here]
- IC90 [4]: 21 nM

SMILES: O=C1Nc2ccc(Cl)c(F)c2[C@@](C#CC2CC2)(C(F)(F)F)N1
- IC90 [1]: 151 nM
- IC90 ([2]; Human immunodeficiency virus 1): 18 nM
- IC50 [6]: 102 nM
- IC90 [3]: 4.8 nM
- IC90 [4]: 40 nM

SMILES: O=C1Nc2ccc(Cl)cc2[C@@](C#CC2CC2)(C(F)(F)F)N1 (stereo in doubt; 14) [listing 2 of 2 here]
- IC90 [1]: 336 nM
- IC90 [2]: 22 nM
- IC90 [5]: 18 nM
- IC50 [6]: 111 nM
- IC90 [3]: 2.7 nM

SMILES: O=C1Nc2ccc(F)c(F)c2[C@@](C#CC2CC2)(C(F)(F)F)N1 (stereo in doubt; 13) [listing 1 of 2 here]
- IC90 [1]: 119 nM
- IC90 ([2]; Human immunodeficiency virus 1): 13 nM
- IC90 [5]: 12 nM
- IC50 [6]: 74 nM
- IC90 [3]: 2.1 nM

SMILES: O=C1Nc2ccc(Cl)c(Cl)c2[C@@](C#CC2CC2)(C(F)(F)F)N1
- IC90 [1]: 196 nM
- IC90 ([2]; Human immunodeficiency virus 1): 18 nM
- IC50 [6]: 166 nM
- IC90 [3]: 8 nM
- IC90 [4]: 88 nM

SMILES: O=C1Nc2ccc(F)c(F)c2[C@@](C#CC2CC2)(C(F)(F)F)N1 (stereo in doubt; 13) [listing 2 of 2 here]
- IC90 [4]: 19 nM
